Values after ≈ are worked out from the molar mass of the structure shown.
Tests used:
Streptococcus pyogenes [1] = experiment: Antibacterial activity against erythromycin-resistant Streptococcus pyogenes RE clinical isolate by broth microdilution method; type: functional
Salmonella typhimurium [2] = experiment: Antibacterial activity against Salmonella typhimurium TA98 by broth microdilution method; type: functional, Salmonella enterica subsp. enterica serovar Typhimurium; conditions: Salmonella enterica
Streptococcus pyogenes [3] = experiment: Antibacterial activity against erythromycin-susceptible Streptococcus pyogenes by broth microdilution method; type: functional
Salmonella typhimurium [4] = experiment: Antibacterial activity against Salmonella typhimurium TA102 by broth microdilution method; type: functional, Salmonella enterica subsp. enterica serovar Typhimurium; conditions: Salmonella enterica
Streptococcus pneumoniae [5] = experiment: Antibacterial activity against erythromycin-resistant Streptococcus pneumoniae A22072 expressing mef gene by broth microdilution method; type: functional
Streptococcus pneumoniae [6] = experiment: Antibacterial activity against erythromycin-resistant Streptococcus pneumoniae B1 expressing erm gene by broth microdilution method; type: functional
Streptococcus pneumoniae [7] = experiment: Antibacterial activity against erythromycin-resistant Streptococcus pneumoniae AB11 expressing erm and mef genes by broth microdilution method; type: functional
Streptococcus pneumoniae [8] = experiment: Antibacterial activity against erythromycin-susceptible Streptococcus pneumoniae ATCC 49619 by broth microdilution method; type: functional
Staphylococcus aureus [9] = experiment: Antibacterial activity against methicillin-susceptible Staphylococcus aureus ATCC 29213 by broth microdilution method; type: functional
Staphylococcus aureus [10] = experiment: Antibacterial activity against penicillin-resistant Staphylococcus aureus clinical isolate by broth microdilution method; type: functional
Staphylococcus aureus [11] = experiment: Antibacterial activity against erythromycin-susceptible Staphylococcus aureus ATCC 25923 by broth microdilution method; type: functional

CC[C@H]1OC(=O)[C@H](C)[C@@H](O[C@H]2C[C@@](C)(OC)[C@@H](OC(=O)NCCCCNC(=O)c3ccc(OC)cc3)[C@H](C)O2)[C@H](C)[C@@H](O[C@@H]2O[C@H](C)C[C@H](N(C)C)[C@H]2O)[C@](C)(O)C[C@@H](C)CN(C)[C@H](C)[C@@H](OC(=O)NCc2ccc(OC)cc2)[C@]1(C)O
MIC (Streptococcus pyogenes [1]): 64 µg/mL (≈ 55.2 µM)
MIC (Salmonella typhimurium [2]): 16 µg/mL (≈ 13.8 µM)
MIC (Streptococcus pyogenes [3]): 32 µg/mL (≈ 27.6 µM)
MIC (Salmonella typhimurium [4]): 2 µg/mL (≈ 1.72 µM)
MIC (Streptococcus pneumoniae [5]): 0.5 µg/mL (≈ 0.431 µM)
MIC (Streptococcus pneumoniae [6]): 2 µg/mL (≈ 1.72 µM)
MIC (Streptococcus pneumoniae [7]): 16 µg/mL (≈ 13.8 µM)
MIC (Streptococcus pneumoniae [8]): 0.12 µg/mL (≈ 0.103 µM)
MIC (Staphylococcus aureus [9]): 4 µg/mL (≈ 3.45 µM)
MIC (Staphylococcus aureus [10]): 4 µg/mL (≈ 3.45 µM)
MIC (Staphylococcus aureus [11]): 1 µg/mL (≈ 0.862 µM)

CC[C@H]1OC(=O)[C@H](C)[C@@H](O[C@H]2C[C@@](C)(OC)[C@@H](OC(=O)NCCNC(=O)c3ccc(C)cc3)[C@H](C)O2)[C@H](C)[C@@H](O[C@@H]2O[C@H](C)C[C@H](N(C)C)[C@H]2O)[C@](C)(O)C[C@@H](C)CN(C)[C@H](C)[C@@H](OC(=O)NCCc2ccccc2)[C@]1(C)O
MIC (Streptococcus pyogenes [1]): 64 µg/mL (≈ 58.2 µM)
MIC (Salmonella typhimurium [2]): 2 µg/mL (≈ 1.82 µM)
MIC (Streptococcus pyogenes [3]): 8 µg/mL (≈ 7.27 µM)
MIC (Salmonella typhimurium [4]): 2 µg/mL (≈ 1.82 µM)
MIC (Streptococcus pneumoniae [5]): 0.12 µg/mL (≈ 0.109 µM)
MIC (Streptococcus pneumoniae [6]): 2 µg/mL (≈ 1.82 µM)
MIC (Streptococcus pneumoniae [7]): 8 µg/mL (≈ 7.27 µM)
MIC (Streptococcus pneumoniae [8]): 0.06 µg/mL (≈ 0.0545 µM)
MIC (Staphylococcus aureus [9]): 2 µg/mL (≈ 1.82 µM)
MIC (Staphylococcus aureus [10]): 8 µg/mL (≈ 7.27 µM)
MIC (Staphylococcus aureus [11]): 1 µg/mL (≈ 0.909 µM)

CC[C@H]1OC(=O)[C@H](C)[C@@H](O[C@H]2C[C@@](C)(OC)[C@@H](OC(=O)NCCCCNC(=O)c3ccc(OC)cc3)[C@H](C)O2)[C@H](C)[C@@H](O[C@@H]2O[C@H](C)C[C@H](N(C)C)[C@H]2O)[C@](C)(O)C[C@@H](C)CN(C)[C@H](C)[C@@H](OC(=O)NCc2ccc(F)c(F)c2)[C@]1(C)O
MIC (Streptococcus pyogenes [1]): 64 µg/mL (≈ 54.9 µM)
MIC (Salmonella typhimurium [2]): 4 µg/mL (≈ 3.43 µM)
MIC (Streptococcus pyogenes [3]): 8 µg/mL (≈ 6.86 µM)
MIC (Salmonella typhimurium [4]): 32 µg/mL (≈ 27.4 µM)
MIC (Streptococcus pneumoniae [5]): 0.12 µg/mL (≈ 0.103 µM)
MIC (Streptococcus pneumoniae [6]): 4 µg/mL (≈ 3.43 µM)
MIC (Streptococcus pneumoniae [7]): 16 µg/mL (≈ 13.7 µM)
MIC (Streptococcus pneumoniae [8]): 0.03 µg/mL (≈ 0.0257 µM)
MIC (Staphylococcus aureus [9]): 4 µg/mL (≈ 3.43 µM)
MIC (Staphylococcus aureus [10]): 4 µg/mL (≈ 3.43 µM)
MIC (Staphylococcus aureus [11]): 0.5 µg/mL (≈ 0.429 µM)

CC[C@H]1OC(=O)[C@H](C)[C@@H](O[C@H]2C[C@@](C)(OC)[C@@H](OC(=O)NCCCCNC(=O)c3ccccc3OC)[C@H](C)O2)[C@H](C)[C@@H](O[C@@H]2O[C@H](C)C[C@H](N(C)C)[C@H]2O)[C@](C)(O)C[C@@H](C)CN(C)[C@H](C)[C@@H](OC(=O)NCCc2ccccc2)[C@]1(C)O
MIC (Streptococcus pyogenes [1]): 16 µg/mL (≈ 14 µM)
MIC (Salmonella typhimurium [2]): 4 µg/mL (≈ 3.5 µM)
MIC (Streptococcus pyogenes [3]): 16 µg/mL (≈ 14 µM)
MIC (Salmonella typhimurium [4]): 1 µg/mL (≈ 0.874 µM)
MIC (Streptococcus pneumoniae [5]): 2 µg/mL (≈ 1.75 µM)
MIC (Streptococcus pneumoniae [6]): 8 µg/mL (≈ 6.99 µM)
MIC (Streptococcus pneumoniae [7]): 16 µg/mL (≈ 14 µM)
MIC (Streptococcus pneumoniae [8]): 0.12 µg/mL (≈ 0.105 µM)
MIC (Staphylococcus aureus [9]): 32 µg/mL (≈ 28 µM)
MIC (Staphylococcus aureus [10]): 8 µg/mL (≈ 6.99 µM)
MIC (Staphylococcus aureus [11]): 0.5 µg/mL (≈ 0.437 µM)

CC[C@H]1OC(=O)[C@H](C)[C@@H](O[C@H]2C[C@@](C)(OC)[C@@H](O)[C@H](C)O2)[C@H](C)[C@@H](O[C@@H]2O[C@H](C)C[C@H](N(C)C)[C@H]2O)[C@](C)(O)C[C@@H](C)C(=O)[C@H](C)[C@@H](O)[C@]1(C)O [ERYTHROMYCIN]
MIC (Streptococcus pyogenes [1]): 4 µg/mL (≈ 5.45 µM)
MIC (Salmonella typhimurium [2]): 0.5 µg/mL (≈ 0.681 µM)
MIC (Streptococcus pyogenes [3]): 0.03 µg/mL (≈ 0.0409 µM)
MIC (Salmonella typhimurium [4]): 2 µg/mL (≈ 2.73 µM)
MIC (Streptococcus pneumoniae [5]): 8 µg/mL (≈ 10.9 µM)
MIC (Streptococcus pneumoniae [6]): 128 µg/mL (≈ 174 µM)
MIC (Streptococcus pneumoniae [7]): 256 µg/mL (≈ 349 µM)
MIC (Streptococcus pneumoniae [8]): 0.03 µg/mL (≈ 0.0409 µM)
MIC (Staphylococcus aureus [9]): 0.12 µg/mL (≈ 0.164 µM)
MIC (Staphylococcus aureus [10]): 0.25 µg/mL (≈ 0.341 µM)
MIC (Staphylococcus aureus [11]): 0.06 µg/mL (≈ 0.0818 µM)

CC[C@H]1OC(=O)[C@H](C)[C@@H](O[C@H]2C[C@@](C)(OC)[C@@H](OC(=O)NCCCCNC(=O)c3ccc(OC)cc3)[C@H](C)O2)[C@H](C)[C@@H](O[C@@H]2O[C@H](C)C[C@H](N(C)C)[C@H]2O)[C@](C)(O)C[C@@H](C)CN(C)[C@H](C)[C@@H](OC(=O)NCc2ccc(F)cc2)[C@]1(C)O
MIC (Streptococcus pyogenes [1]): 64 µg/mL (≈ 55.7 µM)
MIC (Salmonella typhimurium [2]): 8 µg/mL (≈ 6.97 µM)
MIC (Streptococcus pyogenes [3]): 32 µg/mL (≈ 27.9 µM)
MIC (Salmonella typhimurium [4]): 1 µg/mL (≈ 0.871 µM)
MIC (Streptococcus pneumoniae [5]): 0.25 µg/mL (≈ 0.218 µM)
MIC (Streptococcus pneumoniae [6]): 4 µg/mL (≈ 3.48 µM)
MIC (Streptococcus pneumoniae [7]): 16 µg/mL (≈ 13.9 µM)
MIC (Streptococcus pneumoniae [8]): 0.06 µg/mL (≈ 0.0522 µM)
MIC (Staphylococcus aureus [9]): 8 µg/mL (≈ 6.97 µM)
MIC (Staphylococcus aureus [10]): 4 µg/mL (≈ 3.48 µM)
MIC (Staphylococcus aureus [11]): 1 µg/mL (≈ 0.871 µM)

CC[C@H]1OC(=O)[C@H](C)[C@@H](O[C@H]2C[C@@](C)(OC)[C@@H](OC(=O)NCCCCNC(=O)c3ccc(OC)c(OC)c3)[C@H](C)O2)[C@H](C)[C@@H](O[C@@H]2O[C@H](C)C[C@H](N(C)C)[C@H]2O)[C@](C)(O)C[C@@H](C)CN(C)[C@H](C)[C@@H](OC(=O)NCCc2ccccc2)[C@]1(C)O
MIC (Streptococcus pyogenes [1]): 64 µg/mL (≈ 54.5 µM)
MIC (Salmonella typhimurium [2]): 4 µg/mL (≈ 3.41 µM)
MIC (Streptococcus pyogenes [3]): 8 µg/mL (≈ 6.81 µM)
MIC (Salmonella typhimurium [4]): 4 µg/mL (≈ 3.41 µM)
MIC (Streptococcus pneumoniae [5]): 2 µg/mL (≈ 1.7 µM)
MIC (Streptococcus pneumoniae [6]): 8 µg/mL (≈ 6.81 µM)
MIC (Streptococcus pneumoniae [7]): 16 µg/mL (≈ 13.6 µM)
MIC (Streptococcus pneumoniae [8]): 0.12 µg/mL (≈ 0.102 µM)
MIC (Staphylococcus aureus [9]): 32 µg/mL (≈ 27.2 µM)
MIC (Staphylococcus aureus [10]): 16 µg/mL (≈ 13.6 µM)
MIC (Staphylococcus aureus [11]): 0.5 µg/mL (≈ 0.426 µM)

CC[C@H]1OC(=O)[C@H](C)[C@@H](O[C@H]2C[C@@](C)(OC)[C@@H](OC(=O)NNC(=O)c3ccc(Cl)cc3)[C@H](C)O2)[C@H](C)[C@@H](O[C@@H]2O[C@H](C)C[C@H](N(C)C)[C@H]2O)[C@](C)(O)C[C@@H](C)CN(C)[C@H](C)[C@@H](OC(=O)NCCc2ccccc2)[C@]1(C)O
MIC (Streptococcus pyogenes [1]): 32 µg/mL (≈ 29.3 µM)
MIC (Salmonella typhimurium [2]): 1 µg/mL (≈ 0.915 µM)
MIC (Streptococcus pyogenes [3]): 1 µg/mL (≈ 0.915 µM)
MIC (Salmonella typhimurium [4]): 8 µg/mL (≈ 7.32 µM)
MIC (Streptococcus pneumoniae [5]): 0.12 µg/mL (≈ 0.11 µM)
MIC (Streptococcus pneumoniae [6]): 2 µg/mL (≈ 1.83 µM)
MIC (Streptococcus pneumoniae [7]): 8 µg/mL (≈ 7.32 µM)
MIC (Streptococcus pneumoniae [8]): 0.03 µg/mL (≈ 0.0275 µM)
MIC (Staphylococcus aureus [9]): 2 µg/mL (≈ 1.83 µM)
MIC (Staphylococcus aureus [10]): 8 µg/mL (≈ 7.32 µM)
MIC (Staphylococcus aureus [11]): 0.5 µg/mL (≈ 0.458 µM)

— ChEMBL document CHEMBL2311450, “Synthesis and antibacterial evaluation of novel 11,4″-disubstituted azithromycin analogs with greatly improved activity against erythromycin-resistant bacteria” (2013)
